In US8993622B2, “Antiviral compounds” (Eirium AB, priority 2010, dated 2015):
pIC50: −log10 of the molar value.

Assays:
[1] = tested on: Ad5 hexon protein; experiment: FACS analysis of Ad5 hexon protein expression in A549 cells; format: cell-based, human adenovirus; details: 24 h
Description: (§1) FIG. 4. A. Binding of ^35S-labelled Ad5 to A549 cells in the presence of A02. Error bars represent the standard deviation of the means from three independent duplicate experiments. B. Flowcytometry assay detecting Ad5 (grey bars) and Ad11 (checkered bars) hexon protein following 24 h incubation with virus and compound A02. Error bars represent the standard deviation of the means from two independent duplicate experiments.
(§2) A binding assay using isotope-labeled virions was used to address whether the compound would prevent viral adhesion to host cells. At 15 μM, compound A02 has no effect on Ad5 binding to the surface of A549 cells (FIG. 4A). To further verify inhibition of viral replication, the effect on the expression of the most abundant viral structural protein (hexon) in A549 cells was studied by FACS analysis.

[2] = tested on: Ad31 (A); experiment: Quantitative real-time PCR of adenovirus DNA replication in A549 cells (Ad31); format: cell-based; details: Human adenovirus sp., read-out: % inhibition of DNA replication (SD)
Description: (§3) Approximately 1×10^5 A549 cells were seeded in 24-well plates (Nunc) on the day before infection. On the day of infection, the cells in one well were counted to establish the amount of virions to be added. The growth medium was removed and compound and virus were added simultaneously to the cells in 700 μl DMEM with 0.75 g/l NaHCO3, 20 mM HEPES, 1×PEST, and 1% FBS. Compounds were added in concentrations ranging from 0.5 μM to 15 μM. The final concentration of DMSO was less than 1% in all samples. One pg of Ad virions was added per cell. The plate was incubated at 37° C. in 5% CO2 and 24 h after infection the cells were harvested, washed once, and resuspended in PBS. […] The design of primers and probes for analysis of various Ad types representing different adenovirus species with quantitative PCR has been described previously (Allard et al. 2001. Rapid typing of human adenoviruses by a general PCR combined with restriction endonuclease analysis. Journal Clinical Microbiology 39:498-505). Briefly, quantitative real-time PCR was carried out using a degenerate primer pair, Kadgen1 (forward)—Kadgen 2 (reverse) (5′-CWT ACA TGC ACA TCK CSG G-3′—SEQ ID NO:1, and 5′-CRC GGG CRA AYT GCA CCA G-3′—SEQ ID NO:2, respectively); DNA technology A/S, Aarhus, Denmark). […] Real-time PCR was performed in an ABI PRISM 7700 Sequence Detector (Applied Biosystems) and analyzed with Sequence Detector v1.7a software.

[3] = tested on: RCAd11pGFP vector; experiment: Screening assay: GFP expression from RCAd11pGFP vector in K562 cells; format: cell-based; details: Human adenovirus sp., K562, 24 h, read-out: 50% inhibitory concentration (IC50), inhibition of GFP expression
From the text: The screening assay is based on GFP expression from the RCAd11pGFP vector in a K562 cell system. […] To be considered as a potential hit, the compound had to decrease the intensity of fluorescence by more than 80% and kill no more than 50% of the cells. […] None of the compounds selected for further study were autofluorescent.
To verify the hits and to exclude false positives, the compounds were serially diluted in 7 steps for dose-response analysis using the screening assay. […] Twenty-four compounds met these criteria. The distribution of fluorescence inhibition and cellular toxicity detected in the screening process of these 24 hits is summarized in FIG. 1. One of the most efficient and least toxic compounds was A02, 2-[[2-(benzoylamino)benzoyl]amino]-benzoic acid. This compound was evaluated further as a potential drug candidate.

[4] = Toxicity in the A549 cell system (XTT assay); format: cell-based; details: human, A549 cells, read-out: 50% cytotoxic concentration (CC50)
Description: FIG. 3. Titration of the effect of A02 on Ad5, Ad11p and the toxic effect in A549 cells following 24 h incubation with virus and/or compound A02. […] IC50 is the concentration at which the Ad replication is inhibited by 50% as determined by qPCR and CC50 is the concentration at which the cytotoxicity is 50%, i.e. 50% of the cells are viable, as determined by the XTT assay. Error bars represent the standard deviation of the means from three independent duplicate experiments.

[5] = tested on: cells; experiment: Cellular toxicity of select compounds (% dead cells, CC50); format: cell-based; details: 24 h
[6] = tested on: Ad41 (F); experiment: Quantitative real-time PCR of adenovirus DNA replication in A549 cells (Ad41); format: cell-based; details: Human adenovirus sp., read-out: % inhibition of DNA replication (SD)
Description: as §3

[7] = tested on: Ad11p hexon protein; experiment: FACS analysis of Ad11p hexon protein expression in A549 cells; format: cell-based, human adenovirus; details: 24 h
Description: as §1, §2

Compound: O=C(Nc1ccccc1C(=O)Nc1ccccc1C(=O)O)c1ccccc1 [Compound A02, 2-[[2-(Benzoylamino)benzoyl]amino]-benzoic acid]
- expression of Ad5 hexon protein [1]: inhibited by compound A02 in a dose-dependent manner
- inhibition at 5 µM ([2]; 5 μM): 86%
- inhibition at 15 µM ([2]; 15 μM): 98%
- pIC50 [3]: 4.54
- CC50 at 24 h [4]: 199 µM
- Toxicity at 30 μM (% dead cells after 24 h) ([5]; 30 μM): 20 ± 7%
- Toxicity at 60 μM (% dead cells after 24 h) ([5]; 60 μM): 29 ± 3%
- inhibition at 5 µM ([6]; 5 μM): 80%
- inhibition at 15 µM ([6]; 15 μM): 88%
- expression of Ad11p hexon protein [7]: inhibited by compound A02 in a dose-dependent manner
